Data taken from patent US11148991B2, “5-bromo-2-(alpha-hydroxypentyl)benzoic acid sodium salts in different crystal forms, and preparation method thereof” (priority 2013, dated 2021).

Tests used:
[1] = Solubility in water and methanol; assay type: physicochemical; details: sodium salt
[2] = Stability in water and methanol solution; assay type: physicochemical; details: sodium salt
rat MCAO model = experiment: Brain infarction volume and brain edema volume in rats with local brain ischemia (MCAO model); assay type: in vivo, Wistar rats
Description: Wistar rats (50% of rats is female and another 50% of rats is male); 5-bromo-2-(α-hydroxypentyl)benzoic acid sodium salt (BZP, in the form of amorphous form, crystal form A and crystal form B, prepared according to the present invention), prepared in double distilled water; […] is in the form of white powder, manufactured by Beijing Chemical Works.
Administration method: 5-bromo-2-(α-hydroxypentyl)benzoic acid sodium salt (BZP) was intravenously injected at one hour before MCAO, with the dosage of 12 mg/kg; 5-bromo-2-(α-hydroxypentyl)benzoic acid sodium salt (BZP) was used to intragastric administration at one hour before MCAO, with the dosage of 20 mg/kg. 2-(α-hydroxypentyl)benzoic acid potassium salt (NBP-K) was used as positive control, and its dosage (calculated in moles) is the same as that of 5-bromo-2-(α-hydroxypentyl)benzoic acid sodium salt, that is, the dosage of intravenous injection is 9.6 mg/kg, and the dosage of intragastric administration is 15.9 mg/kg.
Preparation of MCAO model: Establish a focal brain ischemia-reperfusion injury model by cerebral artery obstruction in rats with suture-occluded method. Rats were intraperitoneally injected with 10% chloral hydrate to anesthetize. Rats were fixed on back and the skin of neck center was incised. The left common carotid artery, external carotid artery, and internal carotid artery were subjected to blunt dissection. The pterygopalatine artery was ligated, only remaining cranial trunk of internal carotid artery; a prepared nylon rope (burning diameter 0.3 mm) was inserted via external carotid artery incision into the bifurcation of the […], and was pushed along the cranial direction of the internal carotid artery. […] This indicates one side of the middle cerebral artery occlusion model was completed. Sutured the incision, remained the end of nylon line out of the skin. For reperfusion, the nylon line was gently pulled out. If feel force of resistance, this indicates the end of nylon line has returned to the trunk of external carotid artery, thereby accomplishing reperfusion.
Determination of infarction volume: After being subjected to ischemia for 2 hours and reperfusion for 24 hours, the heads of rats were cut off. Forebrain was removed and cut into six pieces, each piece being 2 mm. The pieces were stained with TC, and incubated at 37° C. for 30 minutes. Normal issues were stained to be red, but the infarcted issues were stained to be white. Took photos with digital camera, and calculated the percentage of the infarcted area relative to the spherical area of brain by Photoshop.

Rat = experiment: Sub-acute toxicity, rat
[3] = Acute toxicity (LD50), rat; details: in vivo
[4] = Acute toxicity (LD50), mouse; details: in vivo
[5] = intragastric administration one hour before MCAO, BZP 20 mg/kg, NBP-K 15.9 mg/kg, sodium salt
[6] = intravenous injection one hour before MCAO, 12 mg/kg, sodium salt, 12 mg/kg
[7] = intravenous injection one hour before MCAO, BZP 12 mg/kg, NBP-K 9.6 mg/kg, ischemia 2 hours, reperfusion 24 hours, sodium salt
[8] = intravenous injection one hour before MCAO, BZP 12 mg/kg, NBP-K 9.6 mg/kg, sodium salt
[9] = intragastric administration one hour before MCAO, BZP 20 mg/kg, NBP-K 15.9 mg/kg
[10] = intravenous injection one hour before MCAO, 12 mg/kg

CCCCC(O)c1ccc(Br)cc1C(=O)[O-].[Na+] (mixture of isomers) [BZP (mixture), 5-bromo-2-(α-hydroxypentyl)benzoic acid sodium salt, reference compound]
Solubility in methanol [1]: 1580 mg/mL | Solubility in water [1]: 2130 mg/mL | Stability ([2]; in methanol solution): >12 h | Stability ([2]; in water): >12 h

CCCCC(O)c1ccc(Br)cc1C(=O)[O-].[Na+] (stereo not drawn) [5-bromo-2-(α-hydroxypentyl)benzoic acid sodium salt]
Activity compared with 2-(α-hydroxypentyl)benzoic acid potassium salt (rat MCAO model; at the same dosage, conclusion in words): obviously better than 2-(α-hydroxypentyl)benzoic acid potassium salt | Effect on brain tissue injury induced by obstruction of cerebral arteries (rat MCAO model; rats, conclusion in words): can obviously reduce brain tissue injury induced by obstruction of cerebral arteries

CCCCC(O)c1ccc(Br)cc1C(=O)[O-].[Na+] (stereo not drawn) [BZP (crystal form A), 5-bromo-2-(α-hydroxypentyl)benzoic acid sodium salt]
Edema (%) (rat MCAO model; [5]): 2.7 ± 1.30^aa** % | Infarction volume (%) (rat MCAO model; [5]): 7.13 ± 2.98 aa % | Inhibition of edema (%) (rat MCAO model; [5]): 87.55% | Inhibition of infarction volume (%) (rat MCAO model; [5]): 86.65% | Edema (%) (rat MCAO model; [6]): 3.24 ± 4.11^aa* % | Inhibition of edema (%) (rat MCAO model; [6]): 81.28% | Infarction volume (%) (rat MCAO model; [7]): 4.54 ± 1.73 aa % | Inhibition of infarction volume (%) (rat MCAO model; [8]): 91.50% | Solubility in methanol ([1]; listed as BZP (Form A)): 1800 mg/mL | Solubility in water ([1]; listed as BZP (Form A)): 2360 mg/mL | Stability ([2]; in methanol solution, listed as BZP (Form A)): >24 h | Stability ([2]; in water, listed as BZP (Form A)): >20 h

CCCCC(O)c1ccc(Br)cc1C(=O)[O-].[Na+] (stereo not drawn) [BZP (crystal form B), 5-bromo-2-(α-hydroxypentyl)benzoic acid sodium salt]
Edema (%) (rat MCAO model; [5]): 2.87 ± 1.56^aa** % | Infarction volume (%) (rat MCAO model; [5]): 7.13 ± 2.98^aa** % | Inhibition of edema (%) (rat MCAO model; [5]): 85.09% | Inhibition of infarction volume (%) (rat MCAO model; [5]): 86.03% | Edema (%) (rat MCAO model; [6]): 4.20 ± 2.03a % | Inhibition of edema (%) (rat MCAO model; [6]): 78.71% | Infarction volume (%) (rat MCAO model; [7]): 4.76 ± 1.45 aa % | Inhibition of infarction volume (%) (rat MCAO model; [8]): 91.09% | Solubility in methanol ([1]; listed as BZP (Form B)): 1630 mg/mL | Solubility in water ([1]; listed as BZP (Form B)): 2430 mg/mL | Stability ([2]; in methanol solution, listed as BZP (Form B)): >24 h | Stability ([2]; in water, listed as BZP (Form B)): >24 h

CCCCC(O)c1ccccc1C(=O)[O-].[K+] (stereo not drawn) [NBP-K, 2-(α-hydroxypentyl)benzoic acid potassium salt, reference compound]
Edema (%) (rat MCAO model; [9]): 11.04 ± 1.48^aa** % | Infarction volume (%) (rat MCAO model; [9]): 22.28 ± 2.65^aa % | Inhibition of edema (%) (rat MCAO model; [9]): 42.65% | Inhibition of infarction volume (%) (rat MCAO model; [9]): 58.3% | Edema (%) (rat MCAO model; [10]): 12.38 ± 1.29% | Inhibition of edema (%) (rat MCAO model; [10]): 9.37% | Inhibition of infarction volume (%) (rat MCAO model; intravenous injection one hour before MCAO, BZP 12 mg/kg, NBP-K 9.6 mg/kg): 54.42% | Infarction volume (%) (rat MCAO model; intravenous injection one hour before MCAO, BZP 12 mg/kg, NBP-K 9.6 mg/kg, ischemia 2 hours, reperfusion 24 hours): 24.35 ± 4.32^aa % | Sub-acute (Rat; ig): >20 mg/kg | Sub-acute (Rat; iv): >12 mg/kg | LD50 ([3]; iv): 230 mg/kg | LD50 ([3]; po): 623 mg/kg | LD50 ([4]; iv): 303 mg/kg | LD50 ([4]; po): 880 mg/kg
